Test results reported in article PMC4575222 (ChemMedChem, 2011).

Key:
Vero cells = assay: Cytotoxicity against Vero cells; format: cell-based
[1] = Metabolic stability in mouse liver microsomes; format: in vitro ADME; details: for Qp,h (percentage ratio of predicted clearance over plasma flow): well-stirred model; for half-life: mouse, liver microsomes

Cc1c(Cc2ccc(Cl)cc2)c(=O)n2c([nH]c3ccccc32)c1C#N [3a, 2-(4-Chlorobenzyl)-3-methyl-1-oxo-1H,5H-pyrido[1,2-a]benzimidazole-4-carbonitrile]
selectivity index (SI) (Vero cells; IC50 Vero cells over MICMABA, repeat testing): 16
toxicity toward Vero cells from the HTS studies (Vero cells; initial HTS study, before repeat testing): > 100 µm
Qp,h (percentage ratio of predicted clearance over plasma flow) ([1]; mouse liver microsomes): 95.4%
half-life [1]: 6.5 min

Cc1c(Cc2cccc(C(F)(F)F)c2)c(=O)n2c([nH]c3ccccc32)c1C#N [3d, 3-Methyl-1-oxo-2-[3-(trifluoromethyl)benzyl]-1H,5H-pyrido[1,2-a]-benzimidazole-4-carbonitrile]
Qp,h (percentage ratio of predicted clearance over plasma flow) ([1]; mouse liver microsomes): 90.0%
half-life [1]: 15 min

COc1cccc(Cc2c(C)c(C#N)c3[nH]c4ccccc4n3c2=O)c1 [3e, 3-Methyl-2-(3-methoxybenzyl)-1-oxo-1H,5H-pyrido[1,2-a]benzimidazole-4-carbonitrile]
Qp,h (percentage ratio of predicted clearance over plasma flow) ([1]; mouse liver microsomes): 93.5%
half-life [1]: 9.43 min

Cc1c(Cc2ccccc2)c(=O)n2c([nH]c3ccccc32)c1C#N [3v, 2-Benzyl-3-methyl-1-oxo-1H,5H-pyrido[1,2-a]benzimidazole-4-carbonitrile]
Qp,h (percentage ratio of predicted clearance over plasma flow) ([1]; mouse liver microsomes): 94.5%
half-life [1]: 7.82 min

Cc1c(C)c(=O)n2c([nH]c3ccccc32)c1C#N [3w, 2,3-Dimethyl-1-oxo-1H,5H-pyrido[1,2-a]benzimidazole-4-carbonitrile]
Half life ([1]; mouse liver microsomes, 30 min incubation): most stable member of the set of compounds tested
Qp,h (percentage ratio of predicted clearance over plasma flow) ([1]; mouse liver microsomes): 72.5%
half-life [1]: 51.2 min
